Assay results taken from ChEMBL document CHEMBL1201862, “PubChem BioAssay data set” (2004).
Where “and” joins values, the source holds several entries; their conditions need not be identical. Identical values can stand only once.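 Dose response: 5 concentrations. Exposure: 48 h. Format: 96-well plates. Endpoint: linear interpolation; highest concentration if not reached. GI50: concentration for 50% inhibition of growth.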 Calls of active or inactive are those of the source. Rule as the data show it: active = GI50 up to about 1.1 µM and inactive = higher.

Key:
Test in all cases: DTP human tumour cell line panel, 48 h
UACC-257 = system: UACC-257
DU-145 = system: DU-145
MCF7 = system: MCF7
OVCAR-5 = system: OVCAR-5
SK-MEL-2 = system: SK-MEL-2
SNB-19 = system: SNB-19
TK-10 = system: TK-10
Malme-3M = system: Malme-3M
NCI-H460 = system: NCI-H460
KM12 = system: KM12
Hs-578T = system: Hs-578T
SF-295 = system: SF-295
SK-MEL-5 = system: SK-MEL-5
A498 = system: A498
MDA-MB-231 = system: MDA-MB-231
U-251 = system: U-251
HCT-15 = system: HCT-15
HCT-116 = system: HCT-116
T47D = system: T47D
OVCAR-3 = system: OVCAR-3

Structure (SMILES) | GI50 (UACC-257) | GI50 (DU-145) | GI50 (MCF7) | GI50 (OVCAR-5) | GI50 (SK-MEL-2) | GI50 (SNB-19) | GI50 (TK-10) | GI50 (Malme-3M) | GI50 (NCI-H460) | GI50 (KM12) | GI50 (Hs-578T) | GI50 (SF-295) | GI50 (SK-MEL-5) | GI50 (A498) | GI50 (MDA-MB-231) | GI50 (U-251) | GI50 (HCT-15) [µM] | GI50 (HCT-116) | GI50 (T47D) | GI50 (OVCAR-3)
C/C=C/COc1cc(NC(=S)OC(C)C)ccc1Cl.C/C=C\COc1cc(NC(=S)OC(C)C)ccc1Cl | 18.7 µM (inactive) | 26.5 µM (inactive) | 19.8 µM (inactive) | 19 µM (inactive) | 13.6 µM (inactive) | 20.7 µM (inactive) | 14.9 µM (inactive) | 15 µM (inactive) | 16 µM (inactive) | 17.4 µM (inactive) | 17.7 µM (inactive) | 20.2 µM (inactive) | 16.2 µM (inactive) | 16.2 µM (inactive) | 23.8 µM (inactive) | 16.9 µM (inactive) | 17.3 | 17.4 µM (inactive) | 16.9 µM (inactive) | 18.5 µM (inactive)
CCSc1cc2c(cc1O)CC[C@@H]1[C@@H]2CC[C@]2(C)[C@@H](O)CC[C@@H]12 | 15.1 µM (inactive) | 24.5 µM (inactive) | 10.3 µM (inactive) | 23 µM (inactive) | 16.3 µM (inactive) | 12.1 µM (inactive) | 27.1 µM (inactive) | 11.2 µM (inactive) | 6.68 µM (inactive) | 8.11 µM (inactive) | 5.33 µM (inactive) |  | 10.8 µM (inactive) | 15.6 µM (inactive) | 4.94 µM (inactive) | 12.6 µM (inactive) | 5.68 | 8.57 µM (inactive) | > 10 µM (inactive) | 
NC(=O)c1ccc(NS(=O)(=O)c2ccc(N)cc2)nc1 | > 100 µM (inactive) | > 100 µM (inactive) | > 100 µM (inactive) | > 100 µM (inactive) | > 100 µM (inactive) | > 100 µM (inactive) | > 100 µM (inactive) | > 100 µM (inactive) | > 100 µM (inactive) | > 100 µM (inactive) | > 100 µM (inactive) | > 100 µM (inactive) | > 100 µM (inactive) | > 100 µM (inactive) | > 100 µM (inactive) | > 100 µM (inactive) | > 100 | > 100 µM (inactive) | > 100 µM (inactive) | > 100 µM (inactive)
CC(=O)O[C@H]1C(=O)[C@@]2(C)[C@H]([C@H](OC(=O)c3ccccc3)[C@]3(O)C[C@H](OC(=O)[C@H](OC(=O)OCCC(O)CO)[C@@H](NC(=O)c4ccccc4)c4ccccc4)C(C)=C1C3(C)C)[C@]1(OC(C)=O)CO[C@@H]1C[C@@H]2O (some centres undefined) | < 0.01 µM (active) | < 0.01 µM (active) | < 0.01 µM (active) | < 0.016 µM (active) | 29 µM (inactive) | < 0.01 µM (active) | 0.998 µM (active) |  | < 0.01 µM (active) | < 0.01 µM (active) | < 0.01 µM (active) | 0.0192 µM (active) | < 0.01 µM (active) | 0.141 µM (active) | < 0.0135 µM (active) | < 0.01 µM (active) | 0.303 | < 0.01 µM (active) | < 0.01 µM (active) | < 0.01 µM (active)
O=C(NNC(=O)c1ccccc1O)c1cccc(Br)c1 | > 77.6 µM (inactive) | 30.2 µM (inactive) | 6.71 µM (inactive) | > 100 µM (inactive) | > 70 µM (inactive) | 73.6 µM (inactive) | > 100 µM (inactive) | 37.2 µM (inactive) | 8.43 µM (inactive) | > 42.6 µM (inactive) | > 66.7 µM (inactive) | 27.3 µM (inactive) | 24.2 µM (inactive) | > 92.9 µM (inactive) | 18.2 µM (inactive) | > 100 µM (inactive) | 6.85 | 24.1 µM (inactive) | > 51.6 µM (inactive) | 8.47 µM (inactive)
CCC1(O)CC(OC2CC(N(C)C)C(OC3CC(O)C(OC4OC(C)C(=O)C=C4N)C(C)O3)C(C)O2)c2c(O)c3c(c(O)c2C1C(=O)OC)C(=O)c1cccc(O)c1C3=O (centres undefined) | 0.00836 µM (active) | 0.00686 µM (active) | 0.002 µM (active) | 0.00792 µM (active) | 0.00927 µM (active) | 0.00929 µM (active) | 0.0168 µM (active) | 0.0114 µM (active) | 0.000452 µM (active) | 0.0032 µM (active) | 0.0309 µM (active) | 0.00134 µM (active) | 0.00417 µM (active) | 0.00105 µM (active) | 0.0583 µM (active) | 0.00336 µM (active) | 0.0418 | 0.000617 µM (active) | 0.0118 µM (active) | 0.0225 µM (active)
O/N=C/C1c2ccccc2-c2ccccc21 | 17.5 µM (inactive) | 20.8 µM (inactive) | 16 µM (inactive) |  | 17.1 µM (inactive) | 18.4 µM (inactive) | 18.9 µM (inactive) | 15.2 µM (inactive) | 17.3 µM (inactive) | 17.4 µM (inactive) | 18.7 µM (inactive) | 22.5 µM (inactive) | 12.5 µM (inactive) | 17.5 µM (inactive) | 14.6 µM (inactive) | 19.4 µM (inactive) | 19.5 | 16.3 µM (inactive) | 19.3 µM (inactive) | 16.1 µM (inactive)
C[C@H]1[C@H](C)CC[C@]2(C(=O)OC3OC(CO)C(O)C(O)C3O)CC[C@]3(C)C(=CC[C@@H]4[C@@]5(C)C[C@H]6OC(=O)c7cc(O)c(O)c(O)c7-c7c(cc(O)c(O)c7O)C(=O)O[C@@H]6C(CO)(CO)[C@@H]5CC[C@]43C)[C@H]12 (some centres undefined) | > 100 µM (inactive) | > 100 µM (inactive) | 17 µM (inactive) | > 95.9 µM (inactive) | > 100 µM (inactive) | 43.7 µM (inactive) | > 100 µM (inactive) | > 100 µM (inactive) | 45.1 µM (inactive) | 42.9 µM (inactive) | > 100 µM (inactive) | 40.6 µM (inactive) | 72.9 µM (inactive) | > 100 µM (inactive) | 15.6 µM (inactive) | 17.7 µM (inactive) | 24.8 | 54.1 µM (inactive) | > 74.8 µM (inactive) | > 43 µM (inactive)
COc1cc2c(=O)cnoc2cc1O | > 100 µM (inactive) | > 100 µM (inactive) | > 100 µM (inactive) | > 100 µM (inactive) | > 100 µM (inactive) | > 100 µM (inactive) | > 100 µM (inactive) | > 100 µM (inactive) | > 100 µM (inactive) | > 100 µM (inactive) | > 100 µM (inactive) | > 100 µM (inactive) | > 100 µM (inactive) | 39.5 µM (inactive) | > 100 µM (inactive) | > 100 µM (inactive) | > 100 |  | > 100 µM (inactive) | > 100 µM (inactive)
N#Cc1c(-c2ccccc2)c(C#N)c(=S)n(C2OCC(O)C(O)C2O)c1N (centres undefined) | > 100 µM (inactive) | > 100 µM (inactive) | > 100 µM (inactive) | > 100 µM (inactive) | > 100 µM (inactive) | > 100 µM (inactive) | 30.8 µM (inactive) and 61.5 µM (inactive) | > 100 µM (inactive) | > 100 µM (inactive) | > 100 µM (inactive) | > 100 µM (inactive) | > 100 µM (inactive) | > 100 µM (inactive) | > 100 µM (inactive) | > 100 µM (inactive) |  | > 100 |  | 75.9 µM (inactive) and 77.4 µM (inactive) | > 100 µM (inactive)
O=C(NCCCl)NCc1ccccc1 | > 100 µM (inactive) | > 100 µM (inactive) | > 100 µM (inactive) | > 100 µM (inactive) | > 100 µM (inactive) | > 100 µM (inactive) |  | > 100 µM (inactive) | 52.5 µM (inactive) | > 100 µM (inactive) | > 100 µM (inactive) | > 100 µM (inactive) | > 100 µM (inactive) | > 100 µM (inactive) | > 100 µM (inactive) | > 100 µM (inactive) | > 100 | > 100 µM (inactive) | > 100 µM (inactive) | > 100 µM (inactive)
COc1ccc(N2C(=O)/C(=C\c3cc(OC)c(OC)c(OC)c3)S(=O)(=O)C2c2ccccc2)cc1 (centres undefined) | 52.7 µM (inactive) | 71.3 µM (inactive) | 30.2 µM (inactive) |  | 8.55 µM (inactive) | 18.5 µM (inactive) | > 100 µM (inactive) | 47.4 µM (inactive) | 47.6 µM (inactive) | 29.2 µM (inactive) | 58.3 µM (inactive) | 21.2 µM (inactive) | 14.2 µM (inactive) | > 100 µM (inactive) | 34.8 µM (inactive) | 11.3 µM (inactive) | 27.7 | 18.8 µM (inactive) | 24.7 µM (inactive) | 27 µM (inactive)
CCOP(=O)(CCCC(O)CNc1cc(Cl)nc(N)n1)OCC (centres undefined) | > 100 µM (inactive) | > 100 µM (inactive) | > 100 µM (inactive) | > 100 µM (inactive) | > 100 µM (inactive) |  | > 100 µM (inactive) | > 100 µM (inactive) | > 100 µM (inactive) | > 100 µM (inactive) | > 100 µM (inactive) | > 100 µM (inactive) | > 100 µM (inactive) | > 100 µM (inactive) | > 100 µM (inactive) | > 100 µM (inactive) | > 100 | > 100 µM (inactive) | > 100 µM (inactive) | > 100 µM (inactive)
O=C1C(/C=N/CCc2c[nH]c3ccccc23)C(C(F)(F)F)=NN1c1nc2ccccc2s1 (centres undefined) | 18 µM (inactive) | 23.3 µM (inactive) | 23 µM (inactive) | 29.2 µM (inactive) | 28.8 µM (inactive) | 36.5 µM (inactive) | 25.4 µM (inactive) | 29.6 µM (inactive) | 24.1 µM (inactive) |  | 44.1 µM (inactive) | 24 µM (inactive) | 18.3 µM (inactive) | 20.3 µM (inactive) | 36.7 µM (inactive) | 34.8 µM (inactive) | 29.9 | 31.6 µM (inactive) | 0.664 µM (active) | 20.7 µM (inactive)
